# Source: patent US12178846B2, “Methods of using gap junctions as therapeutic targets for the treatment of degenerative disorders of the retina” (The Research Foundation for The State University of New York, priority 2014, dated 2024)
# Tested on: RGCs in microbead-injected eyes
# Assay: Microbead-induced experimental glaucoma
# Type: in vivo, mouse
# Description: Experimental glaucoma in mice is induced by IOP elevation achieved by intracameral injections of 10 μm polystyrene microbeads (Invitrogen) as previously described (Chen H, et al., Invest Ophthalmol Vis Sci. 52:36-44 (2011)). The intracameral injections are made unilaterally with 2 μl of microbead suspension containing ˜7.2×106 beads using a glass micropipette attached to a microliter syringe. An equivalent volume of phosphate-buffered saline (PBS) is injected in contralateral eyes to serve as a control. Measurements of IOP are made with the commercially-available Tonolab tonometer (Colonial Medical Supply) and are performed weekly for up to 8 weeks after the microbeads injection. Measurements are made between […] and 12 PM, to minimize the effect of diurnal IOP variations. Six IOP measurements are made at each interval and averaged. Experimental glaucoma was induced by intracameral injections of polystyrene microbeads (Chen H, et al., Invest Ophthalmol Vis Sci. 52:36-44 (2011)) in one eye of wild type (WT) mice, connexin knockout (KO) mice and their […] (HET) control littermates, with sham injection of the second eye as control. IOP measurements were performed weekly and animals were sacrificed at 1, 4, or 8 weeks after initial bead injection. To access cell loss, RGCs and coupled ACs were retrogradely labeled with optic nerve injection of Neurobiotin and vertical retinal sections were counterstained with DAPI to determine overall nuclear counts. RGCs were also labeled by Brn3a antibody for identification. In addition to cell counts, overall retinal damage was assessed by GFAP expression. In some experiments gap junctions were blocked with meclofenamic acid (MFA) intravitreal weekly injections or genetically ablated in connexin KO mice (Cx36^−/−, Cx45^−/−, and Cx36^−/−/Cx45^−/− mice). Data are presented as mean±standard mean error. […] Statistical comparisons were assessed using Student's t-test. […]
compound,measurement,setting,value
"Cc1ccc(Cl)c(Nc2ccccc2C(=O)O)c1Cl [MFA, meclofenamic acid]",RGC cell counts,"MFA (50 μM) before and after bead injection, 8 weeks, control 50±1, untreated bead-injected 33±1, p>0.1 vs control",47±4
same,"RGC counts, MFA alone",injection of MFA alone in control eyes,no detectable effect
same,loss of cells (RGC+dAC) in the GCL,"intravitreal MFA, microbead-injected eyes, 8 weeks",prevents loss of cells in GCL
